# pEC50: −log10 of the molar value. Read-outs that look alike come from different tables or passages of the source.
# Tests used:
# Format in all cases: cell-based
# [1] = tested on: TK6 human lymphoblastoid cells; test: Alamar Blue cytotoxicity assay (metabolic cell activity); details: measured at 21 hours, at the optimized cytotoxic concentration (Table 1), aim 40-60% viability decrease
# Method: (§1) The human lymphoblastoid cell line TK6 (ATCC, Manassas, Va.) was cultured in RPMI 1640 medium (with Glutamax and 10% FHS) at a cell density of 0.2×10^5 to 10×10^5 cells/ml. Cells were routinely subcultured starting from frozen aliquots after […]. For experiments, passage numbers between 3 to 15 were used.
# (§2) Cytotoxic concentrations were determined either by measuring cell density on a Sysmex Cell Counter (Sysmex America, Inc., Mundelein, Ill.) or by metabolic cell activity using the Alamar Blue (Serotec Inc., Raleigh, N.C.) cytotoxicity assay. Alamar Blue indicator dye quantitatively measures proliferation in human and other cells. Alamar Blue is a sensitive fluorimetric and calorimetric reagent sensitive to the redox state of the growth medium. Cell density by Sysmex was measured after the 24 h treatment. Cytotoxicity by Alamar Blue was measured 3 hours prior to end of treatment, i.e., at 21 hours. 200 III of cell suspension were mixed with 20 μl of Alamar Blue reagent in a 96-well plate and measured once/hour using a fluorescence plate reader with 544 nm excitation and 612 nm emission filters. Cell suspension samples from the cytotoxicity dilution series were analyzed for cytometry endpoints by Laser Scanning Cytometry.
# (§3) TK6 human lymphoblastoid cells were exposed to following treatments (24 hours, 0.15×10^6 cells/ml):
# (§4) The six model compounds identified in Table 1 were applied in a dilution series to TK6 cells. The resulting dilution series for each of the six compounds provided individually optimized cytotoxic concentrations for 50% cell death (EC50) as determined by cell density and the Alamar Blue assay. It is possible that cell density and the Alamar Blue assay may not give identical cytotoxicity profiles. Thus, concentrations of the compounds were optimized with the objective to have both cytotoxicity parameters within the range of 40-60% viability decrease. In addition, for representative dilution series several cytometry endpoints were analyzed (BrdU incorporation, KI-67 staining (Histogenex, Edegem, Belgium), propidium iodide staining), although these parameters were not used for concentration selection.
# [2] = tested on: TK6 human lymphoblastoid cells; details: for pEC50: 24 h dilution series, determined by cell density and the Alamar Blue assay, read-out: approximated EC50 (cytotoxic concentration for 50% cell death; equicytotoxic concentration); for Cell Density (±S.D.): 24 h treatment at the optimized cytotoxic concentration (Table 1), aim 40-60% viability decrease
# Method: as §1, §2, §3
# Dose-response determination to provide the doses given in column 4 of Table 1 was carried out with an initial cell density of 0.15×10^6 cells/ml (see Example 1).
# as §4
# [3] = tested on: TK6 human lymphoblastoid cells; test: Microarray gene expression profiling with PLS-DA / KNN discrimination of cytotoxic versus genotoxic compounds (Examples 1-7); details: 24 h
# Method: Total RNA was isolated after 24 hours of treatment with the agents or control using Qiagen's (Hilden, Germany) RNeasy Mini Kits. Samples were made up of 10 ml TK6 cell suspensions with an approximate cell density of 0.3×10^6 cells/ml. Column-purified RNA was eluted with 40 μl water and quality-checked by UV spectrometry and Agilent's “lab-on-a-chip” technology (RNA nano chip, Bioanalyzer 2100, Agilent Technologies, Santa Clara, Calif.). RNA extraction and purification is described by the manufacturer of the GeneChip system.
# Purified total human TK6 RNA was analyzed using the human specific Human Genome U133, 2.0 array (Affymetrix). […] Sequences used in the design of the array were selected from GenBank®, dbEST, and RefSeq.
# The resulting primary raw data, the image files (.dat files), were processed using the Microarray Analysis Suite 5 (MAS5) software (Affymetrix). Tab-delimited files were obtained containing data regarding signal intensity (Signal) and categorical expression level measurement (Absolute Call).
# The raw data obtained from the GeneChip by MAS5 were imported to GeneSpring 7.2 for analysis. Data were normalized per chip and per gene to the respective median. Genes were annotated according to LocusLink nomenclature (http://www.ncbi.nlm.nih.gov/LocusLink/).
# Filtering of the data was performed according to following criteria for each gene:
# Fold-change refers to the ratio of genotoxic versus cytotoxic. Since these studies seek robust predictor genes the limit ratios (1.4 and 0.7) were selected in order to excluded genes that show consistent but only small differences. […]
# PLS-DA was applied iteratively to the gene expression data with cyto- and genotcoxicity as class variables. […] The final model was validated by response permutation; i.e. the class membership of each sample was randomly attributed, evaluated by the model and contrasted to the solution of the model with the original class membership. […]
# [4] = tested on: TK6 human lymphoblastoid cells; details: dilution series up to or around the EC50 values (FIG. 1)
# Method: FIG. 1. Graphical representation of the percentage of cells in G2 phase as a function of dilution of the indicated genotoxic and nongenotoxic compounds (points 1-9), with control samples at points 10-12. An original color image has been converted to grayscale by computer.
# as §2
# The six model compounds identified in Table 1 were applied in a dilution series to TK6 cells. […]
# [5] = TK6 cells, equicytotoxic concentrations, cytotoxic samples above or at 0, genotoxic samples below 0
Compound,Alamar Blue (±S.D.) [1],pEC50 [2],Cell Density (±S.D.) [2],pEC50 ([2]; listed as tPt),"scores of first component t[1] of PLS-DA with all 215 genes (FIG. 4) [3, 5]",shifts in cell cycle parameters / G2 phase block [4],scores of first component t[1] of PLS-DA with all 215 genes (FIG. 4) ([3]; human)
"N.N.[Cl][Pt][Cl] [cis-Platinum, cis-diammineplatinum(II) dichloride]",46 ± 5%,5.89,53 ± 4%,,,,
"N.N.[Cl][Pt][Cl] [trans-Platinum, trans-diammineplatinum(II) dichloride]",36 ± 13%,,58 ± 7%,4.48,,,
CO[C@H]1/C=C/O[C@@]2(C)Oc3c(C)c(O)c4c(O)c(c(/C=N/N5CCN(C)CC5)c(O)c4c3C2=O)NC(=O)/C(C)=C\C=C\[C@H](C)[C@H](O)[C@@H](C)[C@@H](O)[C@@H](C)[C@H](OC(C)=O)[C@@H]1C [Rifampicin],61 ± 8%,,52 ± 9%,,above or at t[1]=0,no significant shifts in cell cycle parameters,
CO[C@@]12[C@H](COC(N)=O)C3=C(C(=O)C(C)=C(N)C3=O)N1C[C@@H]1N[C@@H]12 [Mitomycin C],48 ± 1%,,53 ± 3%,,,,
[Cl-].[Na+] [NaCl],65 ± 5%,,30 ± 4%,,above or at t[1]=0,no significant shifts in cell cycle parameters,
COS(C)(=O)=O [Methyl methanesulfonate],43 ± 8%,,44 ± 2%,,,,below t[1]=0
